From US7666890B2, “Synthesis and herbicidal activity of 1- (2-substituted benzo[d]thiazol-5-yl)-1H-1,2,4-triazol-5(4H)-one derivatives” (Huazhong Normal University, priority 2007, dated 2010)

Columns and labels:
Assay in all cases: Test of herbicidal activities (greenhouse pot method)
Type in all cases: in vivo
Digiatria sanguinalis = conditions: for Herbicidal activity Digiatria sanguinalis (inhibition level): single dose 300 g ai./h, treated before/after germination, 15 days later, greenhouse pot
Procedure, shortened: (§1)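 Greenhouse pot test on weeds grown in mixed garden/mountain/humus soil at 15-30° C; pre- and post-emergence spray at a single dose of 300 g ai./h via automatic spraying tower (0.2 MPa). Inhibition scored after 15 days into five levels A (90-100%) to E (<50%); triplicate with blank control.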

Brassica juncea = conditions: for Herbicidal activity Brassica juncea (inhibition level): single dose 300 g ai./h, treated before/after germination, 15 days later, greenhouse pot
Procedure, shortened: as §1

Echinochloa crusgalli = conditions: for Herbicidal activity Echinochloa crusgalli (inhibition level): single dose 300 g ai./h, treated before/after germination, 15 days later, greenhouse pot
Procedure, shortened: as §1

Chenopodium album = conditions: for Herbicidal activity Chenopodium album (inhibition level): single dose 300 g ai./h, treated before/after germination, 15 days later, greenhouse pot
Procedure, shortened: as §1

Amaranthus retroflexus = conditions: for Herbicidal activity Amaranthus retroflexus (inhibition level): single dose 300 g ai./h, treated before/after germination, 15 days later, greenhouse pot
Procedure, shortened: as §1

Setaria viridis = conditions: for Herbicidal activity Setaria viridis (inhibition level): single dose 300 g ai./h, treated before/after germination, 15 days later, greenhouse pot
Procedure, shortened: as §1

Structure (SMILES)	inhibition at 300 g/ha (Digiatria sanguinalis; 360 h, read-out: Herbicidal activity Digiatria sanguinalis (inhibition level))	inhibition at 300 g/ha (Brassica juncea; Brassica juncea, 360 h, read-out: Herbicidal activity Brassica juncea (inhibition level))	inhibition at 300 g/ha (Echinochloa crusgalli; Echinochloa crus-galli, 360 h, read-out: Herbicidal activity Echinochloa crusgalli (inhibition level))	inhibition at 300 g/ha (Chenopodium album; Chenopodium album, 360 h, read-out: Herbicidal activity Chenopodium album (inhibition level))	inhibition at 300 g/ha (Amaranthus retroflexus; Amaranthus retroflexus, 360 h, read-out: Herbicidal activity Amaranthus retroflexus (inhibition level))	inhibition at 300 g/ha (Setaria viridis; Setaria viridis, 360 h, read-out: Herbicidal activity Setaria viridis (inhibition level))	Herbicidal activity Digiatria sanguinalis (inhibition level) (Digiatria sanguinalis)	Herbicidal activity Brassica juncea (inhibition level) (Brassica juncea)	Herbicidal activity Echinochloa crusgalli (inhibition level) (Echinochloa crusgalli)	Herbicidal activity Chenopodium album (inhibition level) (Chenopodium album)	Herbicidal activity Amaranthus retroflexus (inhibition level) (Amaranthus retroflexus)	Herbicidal activity Setaria viridis (inhibition level) (Setaria viridis)
CCOC(=O)CSc1nc2cc(-n3nc(C)n(C(F)F)c3=O)c(F)cc2s1 [Compound 93, Ethyl 1-{5-[4-difluoromethyl-3-methyl-5-oxo-4,5-dihydro-1,2,4-triazol-1-yl]-6-fluorobenzo[d]thiazol-2-ylthio}acetate]	90 to 100%	90 to 100%	90 to 100%	90 to 100%	90 to 100%	80 to 90%						
C=CCSc1nc2cc(-n3nc(C)n(C(F)F)c3=O)c(F)cc2s1 [Compound 94]							A (90 ≦ A ≦ 100%)	B (80 ≦ B < 90%)	A (90 ≦ A ≦ 100%)	B (80 ≦ B < 90%)	B (80 ≦ B < 90%)	A (90 ≦ A ≦ 100%)
Cc1nn(-c2cc3nc(S(=O)(=O)Cc4ccccc4)sc3cc2F)c(=O)n1C [Compound 34]							A (90 ≦ A ≦ 100%)	D (50 ≦ D < 60%)	B (80 ≦ B < 90%)	C (60 ≦ C < 80%)	B (80 ≦ B < 90%)	A (90 ≦ A ≦ 100%)
COCCSc1nc2cc(-n3nc(C)n(C(F)F)c3=O)c(Cl)cc2s1 [Compound 76]							A (90 ≦ A ≦ 100%)	C (60 ≦ C < 80%)	A (90 ≦ A ≦ 100%)	C (60 ≦ C < 80%)	A (90 ≦ A ≦ 100%)	B (80 ≦ B < 90%)
C#CCSc1nc2cc(-n3nc(C)n(C(F)F)c3=O)c(F)cc2s1 [Compound 130]							C (60 ≦ C < 80%)	D (50 ≦ D < 60%)	B (80 ≦ B < 90%)	B (80 ≦ B < 90%)	A (90 ≦ A ≦ 100%)	A (90 ≦ A ≦ 100%)
Cc1ccc(C[S+]([O-])c2nc3cc(-n4nc(C)n(C(F)F)c4=O)c(F)cc3s2)cc1 (stereo not drawn) [Compound 105]							C (60 ≦ C < 80%)	B (80 ≦ B < 90%)	D (50 ≦ D < 60%)	B (80 ≦ B < 90%)	B (80 ≦ B < 90%)	B (80 ≦ B < 90%)
CCCCCCSc1nc2cc(-n3nc(C)n(C(F)F)c3=O)c(F)cc2s1 [Compound 83]							D (50 ≦ D < 60%)	C (60 ≦ C < 80%)	B (80 ≦ B < 90%)	A (90 ≦ A ≦ 100%)	A (90 ≦ A ≦ 100%)	A (90 ≦ A ≦ 100%)
Cc1ccc(CSc2nc3cc(-n4nc(C)n(C(F)F)c4=O)c(F)cc3s2)cc1 [Compound 15]							C (60 ≦ C < 80%)	A (90 ≦ A ≦ 100%)	B (80 ≦ B < 90%)	B (80 ≦ B < 90%)	A (90 ≦ A ≦ 100%)	B (80 ≦ B < 90%)
Cc1nn(-c2cc3nc(SCc4csc(Cl)n4)sc3cc2F)c(=O)n1C(F)F [Compound 10]							C (60 ≦ C < 80%)	A (90 ≦ A ≦ 100%)	B (80 ≦ B < 90%)	C (60 ≦ C < 80%)	B (80 ≦ B < 90%)	C (60 ≦ C < 80%)
CCOC(=O)C[S+]([O-])c1nc2cc(-n3nc(C)n(C(F)F)c3=O)c(Br)cc2s1 (stereo not drawn) [Compound 111]							C (60 ≦ C < 80%)	B (80 ≦ B < 90%)	A (90 ≦ A ≦ 100%)	E (E < 50%)	A (90 ≦ A ≦ 100%)	C (60 ≦ C < 80%)
Cc1nn(-c2cc3nc([S+]([O-])Cc4cccc(Cl)c4)sc3cc2F)c(=O)n1C (stereo not drawn) [Compound 103]							B (80 ≦ B < 90%)	D (50 ≦ D < 60%)	E (E < 50%)	A (90 ≦ A ≦ 100%)	A (90 ≦ A ≦ 100%)	B (80 ≦ B < 90%)
Cc1nn(-c2cc3nc(SCc4cccc(Cl)c4)sc3cc2F)c(=O)n1C [Compound 32]							A (90 ≦ A ≦ 100%)	B (80 ≦ B < 90%)	B (80 ≦ B < 90%)	A (90 ≦ A ≦ 100%)	A (90 ≦ A ≦ 100%)	C (60 ≦ C < 80%)
Cc1nn(-c2cc3nc(S(C)(=O)=O)sc3cc2Cl)c(=O)n1C(F)F [Compound 68]							B (80 ≦ B < 90%)	B (80 ≦ B < 90%)	A (90 ≦ A ≦ 100%)	C (60 ≦ C < 80%)	A (90 ≦ A ≦ 100%)	B (80 ≦ B < 90%)
Cc1nn(-c2cc3nc(S(=O)(=O)Cc4cccc([N+](=O)[O-])c4)sc3cc2F)c(=O)n1C(F)F [Compound 50]							A (90 ≦ A ≦ 100%)	C (60 ≦ C < 80%)	B (80 ≦ B < 90%)	D (50 ≦ D < 60%)	B (80 ≦ B < 90%)	B (80 ≦ B < 90%)
CCOC(=O)CS(=O)(=O)c1nc2cc(-n3nc(C)n(C(F)F)c3=O)c(Cl)cc2s1 [Compound 70]							B (80 ≦ B < 90%)	B (80 ≦ B < 90%)	B (80 ≦ B < 90%)	B (80 ≦ B < 90%)	B (80 ≦ B < 90%)	B (80 ≦ B < 90%)
CCOC(=O)C(C)Sc1nc2cc(-n3nc(C)n(C(F)F)c3=O)c(Cl)cc2s1 (stereo not drawn) [Compound 95]							A (90 ≦ A ≦ 100%)	D (50 ≦ D < 60%)	A (90 ≦ A ≦ 100%)	B (80 ≦ B < 90%)	A (90 ≦ A ≦ 100%)	A (90 ≦ A ≦ 100%)
CCS(=O)(=O)c1nc2cc(-n3nc(C)n(C(F)F)c3=O)c(Cl)cc2s1 [Compound 58]							A (90 ≦ A ≦ 100%)	B (80 ≦ B < 90%)	B (80 ≦ B < 90%)	A (90 ≦ A ≦ 100%)	A (90 ≦ A ≦ 100%)	C (60 ≦ C < 80%)
Cc1nn(-c2cc3nc([S+]([O-])Cc4cccc(Cl)c4)sc3cc2Cl)c(=O)n1C(F)F (stereo not drawn) [Compound 107]							B (80 ≦ B < 90%)	A (90 ≦ A ≦ 100%)	B (80 ≦ B < 90%)	B (80 ≦ B < 90%)	A (90 ≦ A ≦ 100%)	D (50 ≦ D < 60%)
CCCCCCSc1nc2cc(-n3nc(C)n(C(F)F)c3=O)c(Cl)cc2s1 [Compound 85]							A (90 ≦ A ≦ 100%)	B (80 ≦ B < 90%)	B (80 ≦ B < 90%)	B (80 ≦ B < 90%)	B (80 ≦ B < 90%)	A (90 ≦ A ≦ 100%)
